Source: patent publication US11124485B2, “Deoxyuridine triphosphatase inhibitors containing cyclopropano linkage” (CV6 Therapeutics (NI) Limited, priority 2015, dated 2021)

Experiments:
[1] = tested on: colorectal (HCT116 and SW620) cell line models; test: MTS growth inhibition assay; type: cell-based; settings: increasing concentrations of 5-FU between 0 and 100 μmol/L; both colorectal cancer cell lines
Experimental: The Cell Titer AQueous MTS assay (Promega) is carried out according to the manufacturers guidelines. […] The combination effect is determined by the combination index (CI) method utilizing Calcusyn software (Biosoft, Ferguson, Mo.). Fraction affected (FA) is calculated from the percent growth inhibition: FA=(100−% growth inhibition)/100.
Test compounds are evaluated for their antitumor activity in colorectal cancer cells using the MTS growth inhibition assay. HCT116 and SW620 cells are exposed to increasing concentrations of each agent for 72 hours and growth inhibition is directly compared to vehicle-treated controls. The NSCLC cell lines A549 and H1299 are exposed to increasing concentrations of each agent for 72 hours and growth inhibition is directly compared to vehicle-treated controls.
MTS growth inhibition assays are performed to evaluate the effectiveness of the test compounds alone and in combination with the fluoropyrimidine thymidylate synthase (TS) inhibitor 5-fluorouracil (5-FU) at inhibiting the growth of colorectal (HCT116 and SW620) cell line models. […] Simultaneous treatment with increasing concentrations of 5-FU and a test compound at fixed concentrations of 25 μmol/L is determined.

[2] = tested on: colorectal (HCT116), breast (MCF-7) and non-small cell lung (H1299, A549, H358 and H460) cell line models; test: Colony forming assay; type: cell-based; settings: increasing concentrations of FUdR between 0.5 and 2.5 μmol/L; all cell lines evaluated
Experimental: Colony forming assay showing the ability of colon (SW620, HCT116), non-small cell lung (A549, H460, H1299 and H358) and breast (MCF7) cancer cells to survive and proliferate following transient 24 hour exposure to test compounds, FUdR and combinations are determined. Specifically, cells are seeded at densities between 50 and 100 cells/well in 24-well plates. Twenty-four hours later, cells are treated with increasing concentrations of a test compound, a fixed dose of FUdR and combinations of these. After 24 hours, drug is removed, cells are rinsed and allowed to outgrow for 10-14 days. At the conclusion of the outgrowth, cells are fixed in 60% ice cold methanol and stained with 0.1% crystal violet, scanned and counted. Data is presented as percentage of untreated controls (mean±SD). Fraction affected and combination indexes are calculated according to the method of Chou and Talalay where <1 is indicative of a synergistic drug interaction.
Colony forming assays are performed to evaluate the effectiveness of test compounds alone and in combination with the fluoropyrimidine thymidylate synthase (TS) inhibitor fluorodeoxyuridine (FUdR) at reducing cancer cell viability in colorectal (HCT116), breast (MCF-7) and non-small cell lung (H1299, A549, H358 and H460) cell line models. […]

Compound	growth inhibition [1]	colonies formed [2]
O=c1[nH]cc(F)c(=O)[nH]1 [Compound 5-FU, 5-fluorouracil]	dose-dependent increases in growth inhibition	–
O=c1[nH]c(=O)n([C@H]2C[C@H](O)[C@@H](CO)O2)cc1F [FUdR, fluorodeoxyuridine]	–	dose-dependent decreases in colonies formed
